Laboratory results reported in patent US9204653B2, “5-fluoro pyrimidine derivatives” (DOW AGROSCIENCES LLC, priority 2008, dated 2015).
Read-outs that look alike come from different tables or passages of the source.

Experiments:
[1] = tested on: Mycosphaerella graminicola; Anamorph: Septoria tritici; Bayer Code SEPTTR; assay: Leaf blotch of wheat, foliar fungicide treatment, one day protectant (1DP) or three day curative (3DC); type: in vivo, Septoria tritici on wheat plants (variety Yuma); conditions: Zymoseptoria tritici, rating of percent disease control
[2] = tested on: Cercospora beticola; Bayer Code CERCBE; assay: Leaf spot of sugar beets; type: in vivo, Cercospora beticola on sugar beets (variety HH-88); conditions: 24 h, % disease control rating, one day protectant; for pest or weed control at 25 ppm: read-out: CERCBE 1 DP 25 ppm; for pest or weed control at 75 ppm: read-out: CERCBE 1 DP 75 ppm
[3] = tested on: Venturia inaequalis; Bayer Code VENTIN; assay: Apple scab; type: in vivo; conditions: 24 h, % disease control rating, one day protectant; for pest or weed control at 25 ppm: read-out: VENTIN 1 DP 25 ppm; for pest or weed control at 75 ppm: read-out: VENTIN 1 DP 75 ppm
[4] = 24 h, one day protectant (1DP), read-out: SETTTR 1DP 25 ppm
[5] = 24 h, one day protectant (1DP), read-out: SEPTTR 1DP 100 ppm
[6] = 72 h, three day curative (3DC), read-out: SEPTTR 3DC 25 ppm
[7] = 72 h, three day curative (3DC), read-out: SEPTTR 3DC 100 ppm

| SMILES | pest or weed control at 25 ppm [1, 4] | pest or weed control at 100 ppm [1, 5] | pest or weed control at 25 ppm [1, 6] | pest or weed control at 100 ppm [1, 7] | pest or weed control at 25 ppm [2] | pest or weed control at 75 ppm [2] | pest or weed control at 25 ppm [3] | pest or weed control at 75 ppm [3] |
| --- | --- | --- | --- | --- | --- | --- | --- | --- |
| COc1ccc(Oc2ncc(F)c(/N=C/N(C)C)n2)cc1 [Compound 187] | 0 to 25% | 0 to 25% | 0 to 25% | 51 to 75% | 0 to 25% | 26 to 50% | 51 to 75% | 26 to 50% |
| COc1c(C)cnc(COc2ncc(F)c(N)n2)c1C [Compound 189] | 51 to 75% | 76 to 100% | 51 to 75% | 76 to 100% | 26 to 50% | 0 to 25% | 51 to 75% | 51 to 75% |
| CS(=O)(=O)c1ccc(COc2ncc(F)c(N)n2)cc1 [Compound 207] | 0 to 25% | 26 to 50% | 0 to 25% | 0 to 25% | 0 to 25% | 0 to 25% | 0 to 25% | 26 to 50% |
| Cn1nc(C(F)(F)F)c(COc2ncc(F)c(N)n2)c1Cl [Compound 211] | 76 to 100% | 76 to 100% | 76 to 100% | 76 to 100% | 0 to 25% | 0 to 25% | 26 to 50% | 51 to 75% |
| CC(=O)Nc1nc(OCCNc2ccccc2)ncc1F [Compound 214] | 0 to 25% | 0 to 25% | 0 to 25% | 0 to 25% | 51 to 75% | 51 to 75% | 76 to 100% | 76 to 100% |
| O=C1OC(Nc2nc(OCc3ccc(F)cc3)ncc2F)c2ccccc21 (stereo not shown) [Compound 226] | 76 to 100% | 76 to 100% | 76 to 100% | 76 to 100% | 0 to 25% | 26 to 50% | 26 to 50% | 76 to 100% |
| CONc1nc(OCc2ccc(F)cc2)ncc1F [Compound 233] | 51 to 75% | 76 to 100% | 76 to 100% | 76 to 100% | 0 to 25% | 0 to 25% | 0 to 25% | 51 to 75% |
| CN(C)/C=N/c1nc(OCCNc2ccccc2)ncc1F [Compound 248] | 0 to 25% | 76 to 100% | 76 to 100% | 76 to 100% | 0 to 25% | 0 to 25% | 0 to 25% | 51 to 75% |
| Cc1oc(-c2ccccc2)cc1COc1ncc(F)c(N)n1 [Compound 251] | 76 to 100% | 76 to 100% | 76 to 100% | 76 to 100% | 0 to 25% | 51 to 75% | 76 to 100% | 76 to 100% |
| CN(C)/C=N/c1nc(OC(=O)c2ccc(Cl)cc2Cl)ncc1F [Compound 260] | 76 to 100% | 76 to 100% | 76 to 100% | 76 to 100% | 76 to 100% | 51 to 75% | 76 to 100% | 76 to 100% |
| Nc1nc(OCCN2CCCC2=O)ncc1F [Compound 270] | 0 to 25% | 0 to 25% | 0 to 25% | 0 to 25% | 26 to 50% | 26 to 50% | 0 to 25% | 26 to 50% |
